Active and inactive are the calls of the source. The rule behind the calls is not given here.
Legend:
[1] = target: Serine/threonine-protein kinase 24 (Homo sapiens) (UniProt Q9Y6E0); assay: Inhibition of MST3 Lys2 labeling site harbouring IHRDIKAANVLLSEHGEVK in human Huh-7 cells at 1 uM by KiNativ Profiling analysis relative to control; format: cell-based
[2] = target: Mitogen-activated protein kinase kinase kinase 4 (Homo sapiens) (UniProt Q9Y6R4); assay: Inhibition of MAP3K4 Lys1 labeling site in human Huh-7 cell lysate at 1 uM by KiNativ Profiling analysis relative to control; format: subcellular
[3] = test system: Fibroblast growth factor receptor 3 (Homo sapiens), P22607 [G697C]; assay: Inhibition of FGFR3 G697C mutant (unknown origin) at 1 uM by Ambit Kinomescan binding assay relative to control; values are per cent of control
[4] = target: eIF-2-alpha kinase GCN2 (Homo sapiens) (UniProt Q9P2K8); assay: Inhibition of GCN2 domain2 Lys2 labeling site in human A-375 cells at 0.05 uM by KiNativ Profiling analysis relative to control; format: cell-based
[5] = target: Maternal embryonic leucine zipper kinase (Homo sapiens) (UniProt Q14680); assay: Inhibition of MELK (unknown origin) at 1 uM by Ambit Kinomescan binding assay relative to control; values are per cent of control
[6] = test system: Proto-oncogene tyrosine-protein kinase receptor Ret (Homo sapiens), P07949 [V804M]; assay: Inhibition of RET V804M mutant (unknown origin) at 1 uM by Ambit Kinomescan binding assay relative to control; values are per cent of control
[7] = target: Mitogen-activated protein kinase 1 (Homo sapiens) (UniProt P28482); assay: Inhibition of ERK2 (unknown origin) at 1 uM by Ambit Kinomescan binding assay relative to control
[8] = target: T1, Mitogen-activated protein kinase kinase kinase kinase 2 (Homo sapiens) (UniProt Q12851); assay: Inhibition of MAP4K2 Lys2 labeling site in human A-375 cells at 5 uM by KiNativ Profiling analysis relative to control; format: cell-based
T1 sequence (whole entry): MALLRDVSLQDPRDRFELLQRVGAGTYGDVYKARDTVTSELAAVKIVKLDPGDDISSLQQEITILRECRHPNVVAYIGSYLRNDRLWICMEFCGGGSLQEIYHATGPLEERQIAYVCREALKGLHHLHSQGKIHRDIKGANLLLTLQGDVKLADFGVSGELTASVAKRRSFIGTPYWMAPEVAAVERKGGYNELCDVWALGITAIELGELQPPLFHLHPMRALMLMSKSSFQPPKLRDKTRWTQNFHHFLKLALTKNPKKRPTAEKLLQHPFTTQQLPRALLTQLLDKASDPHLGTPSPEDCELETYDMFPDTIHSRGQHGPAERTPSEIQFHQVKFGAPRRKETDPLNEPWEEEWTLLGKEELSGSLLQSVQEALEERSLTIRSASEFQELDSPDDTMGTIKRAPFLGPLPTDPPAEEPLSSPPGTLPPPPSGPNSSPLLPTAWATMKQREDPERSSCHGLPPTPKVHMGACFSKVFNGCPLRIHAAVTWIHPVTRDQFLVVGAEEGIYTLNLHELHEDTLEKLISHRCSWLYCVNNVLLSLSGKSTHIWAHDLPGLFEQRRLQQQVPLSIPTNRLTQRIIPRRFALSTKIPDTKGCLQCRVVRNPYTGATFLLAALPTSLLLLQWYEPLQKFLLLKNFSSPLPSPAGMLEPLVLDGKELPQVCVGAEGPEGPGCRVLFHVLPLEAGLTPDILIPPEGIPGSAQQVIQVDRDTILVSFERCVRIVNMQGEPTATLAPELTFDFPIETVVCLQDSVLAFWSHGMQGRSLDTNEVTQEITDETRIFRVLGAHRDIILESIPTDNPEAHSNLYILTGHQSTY

[9] = target: Dual specificity mitogen-activated protein kinase kinase 2 (Homo sapiens) (UniProt P36507); assay: Inhibition of MAP2K2 Lys2 labeling site in human A-375 cells at 5 uM by KiNativ Profiling analysis relative to control; format: cell-based
[10] = target: Mitogen-activated protein kinase 3 (Homo sapiens) (UniProt P27361); assay: Inhibition of Erk1 Lys2 labeling site harbouring DLKPSNLLINTTCDLK in human A-375 cells at 0.05 uM by KiNativ Profiling analysis relative to control; format: cell-based
[11] = target: STE20-like serine/threonine-protein kinase (Homo sapiens) (UniProt Q9H2G2); assay: Inhibition of SLK K2 labeling site harbouring IIHRDLKAGNILFTLDGDIK in human Huh-7 cells at 10 uM by KiNativ Profiling analysis relative to control; format: cell-based
[12] = target: T2, Inhibitor of nuclear factor kappa-B kinase subunit epsilon (Homo sapiens) (UniProt Q14164); assay: Inhibition of IKKe K2 labeling site in human Huh-7 cells at 10 uM by KiNativ Profiling analysis relative to control; format: cell-based
T2 sequence (whole entry): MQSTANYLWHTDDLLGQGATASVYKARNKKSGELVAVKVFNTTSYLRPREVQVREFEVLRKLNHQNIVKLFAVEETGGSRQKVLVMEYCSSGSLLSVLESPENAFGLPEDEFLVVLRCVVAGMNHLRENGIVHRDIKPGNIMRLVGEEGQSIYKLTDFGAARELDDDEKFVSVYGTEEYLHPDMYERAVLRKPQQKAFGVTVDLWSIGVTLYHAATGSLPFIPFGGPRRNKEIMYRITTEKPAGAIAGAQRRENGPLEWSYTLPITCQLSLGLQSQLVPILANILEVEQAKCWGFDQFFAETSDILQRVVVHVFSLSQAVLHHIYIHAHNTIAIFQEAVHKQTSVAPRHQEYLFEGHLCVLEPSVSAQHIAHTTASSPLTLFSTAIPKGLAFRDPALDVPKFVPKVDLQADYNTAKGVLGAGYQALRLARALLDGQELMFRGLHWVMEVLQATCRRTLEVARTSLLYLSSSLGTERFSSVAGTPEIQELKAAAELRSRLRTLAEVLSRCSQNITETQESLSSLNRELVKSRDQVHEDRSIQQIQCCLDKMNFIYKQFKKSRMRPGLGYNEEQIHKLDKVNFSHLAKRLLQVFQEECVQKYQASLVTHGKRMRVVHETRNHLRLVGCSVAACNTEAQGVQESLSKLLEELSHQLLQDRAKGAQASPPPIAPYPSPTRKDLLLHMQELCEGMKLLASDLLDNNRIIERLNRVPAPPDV

[13] = target: Mitogen-activated protein kinase 14 (Homo sapiens, UniProt Q16539); assay: Inhibition of p38alpha (unknown origin) at 10 uM by Ambit Kinomescan binding assay relative to control; values are per cent of control
[14] = target: Death-associated protein kinase 3 (Homo sapiens) (UniProt O43293); assay: Inhibition of DAPK3 (unknown origin) at 10 uM by Ambit Kinomescan binding assay
[15] = target: Calcium/calmodulin-dependent protein kinase type II subunit gamma (Homo sapiens) (UniProt Q13555); assay: Inhibition of CaMK2g K1 labeling site in human Huh-7 cells at 10 uM by KiNativ Profiling analysis relative to control; format: cell-based

Chain of STE20-like serine/threonine-protein kinase (Homo sapiens) (Q9H2G2 whole entry, looked up): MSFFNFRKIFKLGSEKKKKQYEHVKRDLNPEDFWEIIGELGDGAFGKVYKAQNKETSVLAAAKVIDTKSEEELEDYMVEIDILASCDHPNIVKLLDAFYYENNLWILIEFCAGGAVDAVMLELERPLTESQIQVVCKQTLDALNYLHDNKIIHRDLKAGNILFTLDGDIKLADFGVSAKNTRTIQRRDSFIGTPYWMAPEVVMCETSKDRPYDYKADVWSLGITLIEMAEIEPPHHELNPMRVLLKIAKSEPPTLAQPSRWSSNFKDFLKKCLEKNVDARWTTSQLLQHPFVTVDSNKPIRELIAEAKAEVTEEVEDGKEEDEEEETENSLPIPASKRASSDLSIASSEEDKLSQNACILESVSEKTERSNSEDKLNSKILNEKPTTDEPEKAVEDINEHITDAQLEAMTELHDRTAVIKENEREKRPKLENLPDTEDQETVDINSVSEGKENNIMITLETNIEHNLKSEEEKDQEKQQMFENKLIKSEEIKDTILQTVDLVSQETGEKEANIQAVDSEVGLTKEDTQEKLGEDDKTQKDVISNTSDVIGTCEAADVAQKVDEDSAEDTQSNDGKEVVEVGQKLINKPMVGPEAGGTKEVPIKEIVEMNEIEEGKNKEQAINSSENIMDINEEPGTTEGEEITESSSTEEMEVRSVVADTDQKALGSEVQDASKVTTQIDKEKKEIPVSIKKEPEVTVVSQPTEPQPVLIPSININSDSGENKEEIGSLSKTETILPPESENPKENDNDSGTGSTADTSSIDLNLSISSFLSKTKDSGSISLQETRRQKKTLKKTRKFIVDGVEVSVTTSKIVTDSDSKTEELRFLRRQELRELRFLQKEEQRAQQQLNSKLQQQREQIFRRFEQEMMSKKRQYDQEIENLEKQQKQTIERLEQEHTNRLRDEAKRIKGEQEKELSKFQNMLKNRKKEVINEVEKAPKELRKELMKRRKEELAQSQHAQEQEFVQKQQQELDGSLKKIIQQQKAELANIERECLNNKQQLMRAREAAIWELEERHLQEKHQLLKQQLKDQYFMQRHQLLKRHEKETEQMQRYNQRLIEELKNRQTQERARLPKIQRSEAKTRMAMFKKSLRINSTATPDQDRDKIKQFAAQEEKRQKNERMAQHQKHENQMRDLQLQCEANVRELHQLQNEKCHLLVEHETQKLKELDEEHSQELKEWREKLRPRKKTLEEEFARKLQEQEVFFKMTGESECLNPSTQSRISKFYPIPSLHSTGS
Chain of Mitogen-activated protein kinase 3 (Homo sapiens) (P27361 whole entry): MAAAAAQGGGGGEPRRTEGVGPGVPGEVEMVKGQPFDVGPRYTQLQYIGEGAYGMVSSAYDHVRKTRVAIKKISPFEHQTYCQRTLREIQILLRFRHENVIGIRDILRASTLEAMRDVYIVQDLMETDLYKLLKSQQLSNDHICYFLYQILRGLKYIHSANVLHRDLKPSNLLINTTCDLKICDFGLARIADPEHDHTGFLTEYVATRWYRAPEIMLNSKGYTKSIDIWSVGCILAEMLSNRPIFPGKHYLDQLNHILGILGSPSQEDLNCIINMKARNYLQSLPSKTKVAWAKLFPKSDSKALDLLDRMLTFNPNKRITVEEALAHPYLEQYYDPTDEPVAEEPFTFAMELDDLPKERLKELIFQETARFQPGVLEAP
Chain of Serine/threonine-protein kinase 24 (Homo sapiens) (Q9Y6E0 whole entry, looked up): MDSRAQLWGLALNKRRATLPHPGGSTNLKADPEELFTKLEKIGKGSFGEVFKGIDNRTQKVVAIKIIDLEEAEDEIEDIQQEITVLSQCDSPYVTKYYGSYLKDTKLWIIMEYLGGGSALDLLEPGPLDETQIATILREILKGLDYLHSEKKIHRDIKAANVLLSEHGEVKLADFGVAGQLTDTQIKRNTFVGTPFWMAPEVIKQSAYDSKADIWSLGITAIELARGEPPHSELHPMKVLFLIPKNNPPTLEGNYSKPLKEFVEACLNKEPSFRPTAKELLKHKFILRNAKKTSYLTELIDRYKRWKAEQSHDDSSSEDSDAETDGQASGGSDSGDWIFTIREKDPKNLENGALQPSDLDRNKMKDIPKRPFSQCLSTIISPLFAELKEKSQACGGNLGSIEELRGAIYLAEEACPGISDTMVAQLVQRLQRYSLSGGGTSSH
Chain of Proto-oncogene tyrosine-protein kinase receptor Ret (Homo sapiens), P07949 [V804M] (P07949 whole entry V804M): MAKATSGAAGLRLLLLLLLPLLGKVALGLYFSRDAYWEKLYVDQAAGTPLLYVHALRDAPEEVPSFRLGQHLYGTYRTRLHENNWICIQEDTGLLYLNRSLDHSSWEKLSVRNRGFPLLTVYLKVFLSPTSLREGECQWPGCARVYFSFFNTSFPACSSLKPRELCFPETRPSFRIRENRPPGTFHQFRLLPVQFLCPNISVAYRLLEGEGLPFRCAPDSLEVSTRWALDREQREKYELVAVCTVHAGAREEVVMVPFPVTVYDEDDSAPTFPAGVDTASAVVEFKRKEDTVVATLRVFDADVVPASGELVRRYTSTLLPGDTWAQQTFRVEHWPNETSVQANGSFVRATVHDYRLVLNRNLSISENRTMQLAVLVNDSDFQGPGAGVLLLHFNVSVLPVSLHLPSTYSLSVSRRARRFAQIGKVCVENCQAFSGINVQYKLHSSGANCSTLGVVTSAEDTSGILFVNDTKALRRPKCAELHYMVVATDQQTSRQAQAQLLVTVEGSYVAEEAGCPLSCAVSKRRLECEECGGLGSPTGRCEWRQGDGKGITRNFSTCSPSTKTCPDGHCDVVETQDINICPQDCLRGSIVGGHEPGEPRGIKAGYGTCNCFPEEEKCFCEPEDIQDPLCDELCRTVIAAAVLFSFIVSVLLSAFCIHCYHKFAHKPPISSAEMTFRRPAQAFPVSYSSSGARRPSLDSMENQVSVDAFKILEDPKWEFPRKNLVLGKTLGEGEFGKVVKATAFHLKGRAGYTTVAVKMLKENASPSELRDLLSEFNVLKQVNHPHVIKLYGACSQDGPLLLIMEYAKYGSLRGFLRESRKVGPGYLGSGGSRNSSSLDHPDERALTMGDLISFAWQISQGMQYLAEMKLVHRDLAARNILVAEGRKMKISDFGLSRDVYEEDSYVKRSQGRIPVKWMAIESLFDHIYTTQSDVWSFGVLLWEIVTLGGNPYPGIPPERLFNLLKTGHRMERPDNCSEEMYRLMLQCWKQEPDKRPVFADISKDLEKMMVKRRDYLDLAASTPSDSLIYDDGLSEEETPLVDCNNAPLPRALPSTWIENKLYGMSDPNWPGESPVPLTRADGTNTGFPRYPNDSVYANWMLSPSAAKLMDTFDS
Chain of Mitogen-activated protein kinase kinase kinase 4 (Homo sapiens) (Q9Y6R4 whole entry): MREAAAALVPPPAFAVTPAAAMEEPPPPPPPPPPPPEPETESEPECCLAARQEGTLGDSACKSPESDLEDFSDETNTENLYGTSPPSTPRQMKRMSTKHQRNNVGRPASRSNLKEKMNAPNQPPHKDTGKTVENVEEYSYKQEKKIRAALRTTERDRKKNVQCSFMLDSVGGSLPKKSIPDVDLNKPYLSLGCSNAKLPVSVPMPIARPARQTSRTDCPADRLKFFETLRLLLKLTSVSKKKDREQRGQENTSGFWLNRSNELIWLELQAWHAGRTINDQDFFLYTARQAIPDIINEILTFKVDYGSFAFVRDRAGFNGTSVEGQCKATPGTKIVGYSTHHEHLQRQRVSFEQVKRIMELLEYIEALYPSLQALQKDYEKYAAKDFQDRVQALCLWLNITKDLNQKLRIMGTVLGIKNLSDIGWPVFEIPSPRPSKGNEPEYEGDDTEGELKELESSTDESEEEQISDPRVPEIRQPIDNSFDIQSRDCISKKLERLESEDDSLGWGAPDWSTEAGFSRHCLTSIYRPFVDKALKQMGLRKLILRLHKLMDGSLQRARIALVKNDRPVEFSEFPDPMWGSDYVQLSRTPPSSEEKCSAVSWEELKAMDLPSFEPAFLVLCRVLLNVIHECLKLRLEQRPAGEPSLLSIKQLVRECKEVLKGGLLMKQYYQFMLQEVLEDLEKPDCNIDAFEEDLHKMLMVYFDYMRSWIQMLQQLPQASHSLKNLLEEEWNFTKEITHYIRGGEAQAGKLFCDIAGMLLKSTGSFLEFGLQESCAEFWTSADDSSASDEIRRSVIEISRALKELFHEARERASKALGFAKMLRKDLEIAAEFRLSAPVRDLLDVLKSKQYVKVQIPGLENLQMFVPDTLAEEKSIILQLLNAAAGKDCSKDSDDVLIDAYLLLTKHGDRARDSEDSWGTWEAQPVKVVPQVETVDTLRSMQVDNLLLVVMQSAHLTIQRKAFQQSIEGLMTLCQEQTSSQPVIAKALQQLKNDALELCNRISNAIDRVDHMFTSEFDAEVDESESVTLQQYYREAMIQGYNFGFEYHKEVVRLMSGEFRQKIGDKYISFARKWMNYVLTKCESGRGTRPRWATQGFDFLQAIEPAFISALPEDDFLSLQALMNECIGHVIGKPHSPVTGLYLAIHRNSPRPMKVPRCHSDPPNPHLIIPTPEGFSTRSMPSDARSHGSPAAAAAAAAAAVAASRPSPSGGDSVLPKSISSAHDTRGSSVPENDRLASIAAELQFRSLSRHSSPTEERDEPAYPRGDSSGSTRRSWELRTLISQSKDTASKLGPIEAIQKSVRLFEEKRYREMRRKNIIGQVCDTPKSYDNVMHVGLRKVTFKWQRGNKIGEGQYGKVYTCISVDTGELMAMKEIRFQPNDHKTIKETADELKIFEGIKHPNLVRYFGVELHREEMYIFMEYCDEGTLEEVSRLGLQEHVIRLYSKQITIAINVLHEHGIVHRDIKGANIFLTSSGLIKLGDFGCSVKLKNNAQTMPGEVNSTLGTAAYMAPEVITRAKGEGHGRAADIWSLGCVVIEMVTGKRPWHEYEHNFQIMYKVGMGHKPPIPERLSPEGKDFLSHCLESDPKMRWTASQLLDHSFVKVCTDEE

CNc1cc(Oc2cc(C(=O)Nc3cc(N4CCN(C)CC4)cc(C(F)(F)F)c3)ccc2C)ncn1
inhibition [1]: 5%
inhibition [2]: -1.7%

CCN1CCN(Cc2ccc(NC(=O)c3ccc(C)c(/C=C/c4cnc5[nH]ccc5c4OC)c3)cc2C(F)(F)F)CC1
residual activity [3]: 23%
inhibition [4]: -0.9%
residual activity [5]: 72%
percent of control [6]: 0.8%
inhibition [7]: 100%

CCN1CCN(Cc2ccc(NC(=O)c3ccc(C)c(Oc4ccnc5[nH]ccc45)c3)cc2C(F)(F)F)CC1
inhibition [8]: 94%
inhibition [9]: -10%
inhibition [10]: 0.9%
inhibition [11]: 15.7%
inhibition [12]: 8.4%
percent of control [13]: 0%
inhibition [14]: inactive
inhibition [15]: 0%

From ChEMBL document CHEMBL5696442, “Discovery of type II inhibitors of TGFβ-activated kinase 1 (TAK1) and mitogen-activated protein kinase kinase kinase kinase 2 (MAP4K2)” (J Med Chem, 2015)
